Results: US10519145B2, “Pyrazole-oxazolidinone compound for anti-hepatitis B virus” (Shanghai Zhimeng Biopharma Co., Ltd., priority 2016, dated 2019)

How the values were obtained:
[1] = system: HBV genotype AB033554 (B); assay: Anti-different genotypic HBV strain activity assay in vitro, transient transfection; assay type: cell-based; settings: Hepatitis B virus, HepG2
Protocol: (§1) Compounds were tested for in vitro activity against different genotypic HBV strains using a transient transfection cell model. HepG2 cells (4×10^4 cells/well) that had been transfected with different HBV genotypic strains were seeded into 96-well plates and cultured overnight at 37° C. in 5% CO2. The next day, fresh cultures containing compounds in different concentrations were added into the culture wells. On the fifth day, the old culture medium in the culture wells was aspirated and removed. The fresh medium containing compounds in different concentrations was added. On the eighth day, supernatants in the culture wells were collected and used to extract HBV DNA in the supernatant. qPCR assay was used to detected HBV DNA content in the HepG2 supernatant.

[2] = system: HBV genotype AB246345 (C); assay: as above; assay type: cell-based; settings: Hepatitis B virus, HepG2
Protocol: as §1

[3] = system: HBV genotype AB246346 (C); assay: as above; assay type: cell-based; settings: Hepatitis B virus, HepG2
Protocol: as §1

[4] = system: HBV genotype AP007263 (A); assay: as above; assay type: cell-based; settings: Hepatitis B virus, HepG2
Protocol: as §1

[5] = system: HBV genotype HE974371 (A2); assay: as above; assay type: cell-based; settings: Hepatitis B virus, HepG2
Protocol: as §1

[6] = system: HBV genotype JN406371 (B); assay: as above; assay type: cell-based; settings: Hepatitis B virus, HepG2
Protocol: as §1

HBV genotype U95551 (D) = assay: as above; assay type: cell-based; settings: Hepatitis B virus, HepG2
Protocol: as §1

HBV strain U95551 (WT) = assay: In vitro anti-nucleoside drug-resistant HBV strain activity experiment, transient transfection; assay type: cell-based; settings: Hepatitis B virus, transfected HepG2 cells
Protocol: as §1, with “against nucleoside drug-resistant” for “against different genotypic”, “with nucleoside drug-resistant” for “with different”, “HBV” for “HBV genotypic”, “to detect” for “to detected”

[7] = system: nucleoside drug-resistant HBV strain L180M + M204V; assay: as above; assay type: cell-based; settings: Hepatitis B virus, HepG2, 192 h
Protocol: as §1, with “against nucleoside drug-resistant” for “against different genotypic”, “with nucleoside drug-resistant” for “with different”, “HBV” for “HBV genotypic”, “to detect” for “to detected”

[8] = system: nucleoside drug-resistant HBV strain M204I + S202G + M250V; assay: as above; assay type: cell-based; settings: Hepatitis B virus, HepG2, 192 h
Protocol: as §1, with “against nucleoside drug-resistant” for “against different genotypic”, “with nucleoside drug-resistant” for “with different”, “HBV” for “HBV genotypic”, “to detect” for “to detected”

[9] = system: nucleoside drug-resistant HBV strain M204I + S202G; assay: as above; assay type: cell-based; settings: Hepatitis B virus, HepG2, 192 h
Protocol: as §1, with “against nucleoside drug-resistant” for “against different genotypic”, “with nucleoside drug-resistant” for “with different”, “HBV” for “HBV genotypic”, “to detect” for “to detected”

[10] = system: nucleoside drug-resistant HBV strain M204I + V173L; assay: as above; assay type: cell-based; settings: Hepatitis B virus, HepG2, 192 h
Protocol: as §1, with “against nucleoside drug-resistant” for “against different genotypic”, “with nucleoside drug-resistant” for “with different”, “HBV” for “HBV genotypic”, “to detect” for “to detected”

[11] = system: nucleoside drug-resistant HBV strain M204I; assay: as above; assay type: cell-based; settings: Hepatitis B virus, HepG2
Protocol: as §1, with “against nucleoside drug-resistant” for “against different genotypic”, “with nucleoside drug-resistant” for “with different”, “HBV” for “HBV genotypic”, “to detect” for “to detected”

HBV (HepG2.2.15 cells) = assay: Anti-HBV activity experiment in vitro (HepG2.2.15, HBV DNA in supernatant, qPCR); assay type: cell-based; settings: Hepatitis B virus, HBV DNA in supernatant by qPCR, eighth day
Protocol: Compound Dilution: initial concentrations of all compounds used in the anti-HBV activity experiments in vitro were 1 μM, 3-fold diluted into 8 concentrations; initial concentrations of all compounds used in the cytotoxicity assay were 100 μM, 3-fold diluted into 8 concentrations; and the mother liquor of the compound was diluted with DMSO.
Anti-HBV Activity Experiment In Vitro: HepG2.2.15 cells (4×10^4 cells/well) were seeded in 96-well plates and cultured overnight at 37° C. in 5% CO2. The next day, fresh cultures containing compounds in different concentrations were added into the culture wells. On the fifth day, the old culture medium in the culture wells was aspirated and removed. Fresh medium containing compounds in different concentrations was added. On the eighth day, supernatants in the culture wells were collected and used to extract HBV DNA in the supernatant. qPCR assay was used to detect HBV DNA content in the HepG2.2.15 supernatant.
The data analysis and the percentage of inhibition calculation: the percentage of inhibition was calculated by using the following formula: Inhibition %=[(HBV amount in DMSO control−HBV amount in sample)/HBV amount in DMSO control]×100%.

[12] = Pharmacokinetic determination in mice (subcutaneous); assay type: in vivo; settings: sc, female BALB/c mouse, single administration, plasma
Protocol: In addition, the pharmacokinetics of the compound of Example 3 (R isomer) in the present application was determined in mice.
Test compounds were subcutaneously administered to female BALB/c mouse once and blood samples were taken at different time points. LC/MS/MS was used to determine the concentration of the test compounds in the […] plasma after administration of the test compounds and calculate relevant parameters.
Animal blood collection time points were: before administration, 5 min, […], 30 min, 1 h, 2 h, 4 h, 8 h and 24 h after administration.
Mass Spectrometer: Triple Quad 5500. Mass Spectrometry Conditions: SRM Detection
Liquid phase conditions: Column: XSELECT CSHTM XP C18 (2.1×50 mm, 2.5 μm); chromatographic mobile phase: mobile phase A: 0.025% FA & 1 mM NH4OAc in water/CAN solution (v:v, 95: 5), mobile phase B: 0.025% FA & 1 mM NH4OAc in ACN/water solution (v:v, 95: 5) (A:B =65%: 35%-10%: 90%); flow rate: 0.6 mL/min; column temperature: 50° C.
According to the drug blood concentration data, the pharmacokinetic parameters of the test compound were calculated using the pharmacokinetic calculation software WinNonlin 5.2 non-compartmental model.

HBV DNA in mouse plasma = assay: Determination of pharmacodynamics in vivo (high pressure tail vein injection of HBV DNA); settings: 25 mpk, intraperitoneal daily
Protocol: High pressure injection of HBV DNA in tail vein and administration methods:
HBV plasmid DNA solution was high-pressure injected via the tail veins of the mouse: the plasmid DNA was pre-dissolved in physiological saline (10 μg/1.4 ml, 10 μg/1.5 ml) before injection and stored at 4 until its use. The mice were injected with a plasmid DNA solution at a dosage of 8% of the body weight from the tail vein in 5 seconds. If the injection volume is less than or equal to 1.4 ml, 10 μg/1.4 ml of plasmid solution was used; if the injection volume is greater than or equal to 1.5 ml, 10 μg/1.5 ml of plasmid solution was used.
On 1st-7th day, the mice were continuously injected intraperitoneally with the test compound or solvent for 7 days. […] The plasma was divided into two and one was sent to anti-infective groups in the Department of Biology for HBV DNA detection, and the other was ready for use. […]
Quantitative PCR was used to detect the content of HBV DNA in mouse plasma. […]
Quantitative PCR detection of HBV DNA content: In order to rule out possible interference with injected HBV plasmid DNA, two sets of primers and probes were used simultaneously for the assay. […]
HBV DNA content =DNA content detected by HBV primers - DNA content detected by pAAV2 primers

SMILES | EC50 [1] | EC50 [2] | EC50 [3] | EC50 [4] | EC50 [5] | EC50 [6] | EC50 (HBV genotype U95551 (D)) | EC50 (HBV strain U95551 (WT)) | EC50 [7] | EC50 [8] | EC50 [9] | EC50 [10] | EC50 [11] | further results
Nc1ccn([C@@H]2CS[C@H](CO)O2)c(=O)n1 [Lamivudine, 3′-thio-2′,3′-dideoxycytidine, reference compound] | 156 nM | 97.2 nM | 128 nM | 136 nM | 136 nM | 112 nM | 123 nM | 94.9 nM | > 100000 nM | > 100000 nM | > 100000 nM | > 100000 nM | > 100000 nM | –
O=C1CO[C@H](c2cn(-c3ccc(Br)cc3)nc2-c2ccc(F)cc2)N1CCc1ccc2[nH]c(=O)[nH]c2c1 [example 3 R isomer, (R)-3-(2-(2-oxo-2,3-dihydro-1H-benzo[d]imidazol-5-yl)ethyl)-2-(1-(4-bromophenyl)-3-(4-fluorophenyl)-1H-pyrazol-4-yl)-oxazolidin-4-one] | 13.6 nM | 6.26 nM | 14.6 nM | 33.9 nM | 4.67 nM | 8.69 nM | 14.4 nM | 19.1 nM | 18.9 nM | 13.6 nM | 11.6 nM | 14 nM | 21.2 nM | EC50 (HBV (HepG2.2.15 cells)): 7.68 nM; AUC(0-inf) [12]: 2080 ng·h/mL; Cmax [12]: 643 ng/mL; Tmax [12]: 1.33 h; half-life [12]: 1.19 h; MRT inf ([12]; read-out: MRT0-inf): 2.4 h; decrease of HBV DNA content in mouse plasma (HBV DNA in mouse plasma; 1st day): 0.55 log; decrease of HBV DNA content in mouse plasma (HBV DNA in mouse plasma; 3rd day): 1.84 log
